This data set in a line: activity coefficient (dimensionless); of the first substance listed, at infinite dilution; xn = mol fraction of the nth substance listed. Conditions: Liquid, Chromatography, x1 = 0.

From the NIST ThermoML archive (doi:10.1016/j.fluid.2010.01.007) come the findings set out here.

± gives the expanded uncertainty stated by the source.

Regarding `CC1(C)CO1` [2,2-dimethyloxirane] + CCCCn1cc[n+](C)c1.F[B-](F)(F)F, the activity coefficient amounted to 2.19 ± 0.08 (325.2 K); 2.13 ± 0.07 (334.8 K); 2.11 ± 0.07 (344.3 K); 2.06 ± 0.07 (353.9 K); 2.18 ± 0.08 (363.4 K).
On the same counts, the results for `CC1CO1` (stereo unspecified) [methyloxirane] + CCCCn1cc[n+](C)c1.F[B-](F)(F)F are 1.35 ± 0.04, 1.33 ± 0.04, 1.27 ± 0.03, 1.32 ± 0.04 and 1.41 ± 0.04.
For `CCCCC1CO1` (stereo unspecified) [1,2-epoxyhexane] + CCCCn1cc[n+](C)c1.F[B-](F)(F)F, the activity coefficient was determined as 5.7 ± 0.2 (325.2 K); 5.31 ± 0.19 (334.8 K); 5.3 ± 0.19 (344.3 K); 5.14 ± 0.18 (353.9 K); 5.2 ± 0.18 (363.4 K).
`CC1CO1` (stereo unspecified) [methyloxirane] + CCCCn1cc[n+](C)c1.F[P-](F)(F)(F)(F)F: the activity coefficient runs as follows: (334.8 K) 0.838 ± 0.021; (344.3 K) 0.828 ± 0.021; (353.9 K) 0.893 ± 0.021; (363.4 K) 0.872 ± 0.024.
The matching figures for `CC1(C)CO1` [2,2-dimethyloxirane] + CCCCn1cc[n+](C)c1.F[P-](F)(F)(F)(F)F: 1.09 ± 0.03, 1.12 ± 0.03, 1.21 ± 0.03 and 1.19 ± 0.04.
The matching figures for `CCC1CO1` (stereo unspecified) [ethyloxirane] + CCCCn1cc[n+](C)c1.F[P-](F)(F)(F)(F)F: 1.13 ± 0.03, 1.13 ± 0.03, 1.19 ± 0.03 and 1.16 ± 0.03.
Regarding `CCC1CO1` (stereo unspecified) [ethyloxirane] + CCCCn1cc[n+](C)c1.F[B-](F)(F)F, the activity coefficient (325.2 K) is 2.62 ± 0.09; the activity coefficient (334.8 K) came out at 2.14 ± 0.08; the activity coefficient (344.3 K) was 2.08 ± 0.07; the activity coefficient (353.9 K) is 2.05 ± 0.07; the activity coefficient (363.4 K) is 2.1 ± 0.07.
As to `CCCCC1CO1` (stereo unspecified) [1,2-epoxyhexane] + CCCCn1cc[n+](C)c1.F[P-](F)(F)(F)(F)F, the activity coefficient came out at 1.94 ± 0.07 (334.8 K), 2.19 ± 0.08 (344.3 K), 2.2 ± 0.08 (353.9 K) and 2.14 ± 0.08 (363.4 K).
